Laboratory results published in ChEMBL document CHEMBL1201862, “PubChem BioAssay data set” (2004).
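Following 48 hours of exposure in 96-well plates, responses at five concentrations were used to interpolate endpoints linearly. Abbreviation: GI50, concentration required for 50% inhibition of growth.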 Calls of active or inactive are those of the source. Cut-off read from the data, not from the text of the source: active = GI50 up to about 1.1 µM and inactive = higher.

Columns and labels:
Experiment in all cases: growth of human tumour cells (NCI), 48 h
786-0 = tested on: 786-0
A498 = tested on: A498
A549 = tested on: A549
ACHN = tested on: ACHN
BT-549 = tested on: BT-549
CAKI-1 = tested on: CAKI-1
CCRF-CEM = tested on: CCRF-CEM
COLO 205 = tested on: COLO 205
DU-145 = tested on: DU-145
EKVX = tested on: EKVX
HCC 2998 = tested on: HCC 2998
HCT-116 = tested on: HCT-116
HCT-15 = tested on: HCT-15
HL-60 = tested on: HL-60
HOP-62 = tested on: HOP-62
HOP-92 = tested on: HOP-92
HT-29 = tested on: HT-29
Hs-578T = tested on: Hs-578T
IGROV-1 = tested on: IGROV-1
K562 = tested on: K562
KM12 = tested on: KM12
LOX IMVI = tested on: LOX IMVI
M14 = tested on: M14
MCF7 = tested on: MCF7
MDA-MB-231 = tested on: MDA-MB-231
MDA-MB-435 = tested on: MDA-MB-435
MDA-N = tested on: MDA-N
MOLT-4 = tested on: MOLT-4
Malme-3M = tested on: Malme-3M
NCI-H226 = tested on: NCI-H226
NCI-H23 = tested on: NCI-H23
NCI-H460 = tested on: NCI-H460
NCI-H522 = tested on: NCI-H522
NCI/ADR-RES = tested on: NCI/ADR-RES
OVCAR-3 = tested on: OVCAR-3
OVCAR-4 = tested on: OVCAR-4
OVCAR-5 = tested on: OVCAR-5
OVCAR-8 = tested on: OVCAR-8
PC-3 = tested on: PC-3
RXF 393 = tested on: RXF 393
SF-268 = tested on: SF-268
SF-295 = tested on: SF-295
SF-539 = tested on: SF-539
SK-MEL-28 = tested on: SK-MEL-28
SK-MEL-2 = tested on: SK-MEL-2
SK-MEL-5 = tested on: SK-MEL-5
SK-OV-3 = tested on: SK-OV-3
SN12C = tested on: SN12C
SNB-19 = tested on: SNB-19
SNB-75 = tested on: SNB-75
SR = tested on: SR
SW-620 = tested on: SW-620
T47D = tested on: T47D
TK-10 = tested on: TK-10
U-251 = tested on: U-251
UACC-257 = tested on: UACC-257
UACC-62 = tested on: UACC-62
UO-31 = tested on: UO-31

CCOC(=O)/C=C(/C(=O)OCC)n1ccc(=O)n(CC(=O)OCC)c1=O
GI50 (786-0): 412 nM (active)
GI50 (A498): 14800 nM (inactive)
GI50 (A549): 6170 nM (inactive)
GI50 (ACHN): 570 nM (active)
GI50 (BT-549): 2080 nM (inactive)
GI50 (CAKI-1): 146 nM (active)
GI50 (CCRF-CEM): 169 nM (active)
GI50 (COLO 205): 284 nM (active)
GI50 (DU-145): 5010 nM (inactive)
GI50 (EKVX): 1890 nM (inactive)
GI50 (HCC 2998): 2360 nM (inactive)
GI50 (HCT-116): 1010 nM (active)
GI50 (HCT-15): 463 nM
GI50 (HL-60): 143 nM (active)
GI50 (HOP-62): 17200 nM (inactive)
GI50 (HOP-92): 251 nM (active)
GI50 (HT-29): 1580 nM (inactive)
GI50 (Hs-578T): 4900 nM (inactive)
GI50 (IGROV-1): 1610 nM (inactive)
GI50 (K562): 348 nM (active)
GI50 (KM12): 2570 nM (inactive)
GI50 (LOX IMVI): 869 nM (active)
GI50 (M14): 1370 nM (inactive)
GI50 (MCF7): 471 nM (active)
GI50 (MDA-MB-231): 2040 nM (inactive)
GI50 (MDA-MB-435): 1640 nM (inactive)
GI50 (MDA-N): 2440 nM (inactive)
GI50 (MOLT-4): 243 nM (active)
GI50 (Malme-3M): 668 nM (active)
GI50 (NCI-H226): 2220 nM (inactive)
GI50 (NCI-H23): 1780 nM (inactive)
GI50 (NCI-H460): 3890 nM (inactive)
GI50 (NCI-H522): 196 nM (active)
GI50 (NCI/ADR-RES): 2630 nM (inactive)
GI50 (OVCAR-3): 1100 nM (active)
GI50 (OVCAR-4): 1840 nM (inactive)
GI50 (OVCAR-5): 1670 nM (inactive)
GI50 (OVCAR-8): 2390 nM (inactive)
GI50 (PC-3): 1670 nM (inactive)
GI50 (RXF 393): 1150 nM (inactive)
GI50 (SF-268): 3110 nM (inactive)
GI50 (SF-295): 14000 nM (inactive)
GI50 (SF-539): 2960 nM (inactive)
GI50 (SK-MEL-28): 1680 nM (inactive)
GI50 (SK-MEL-2): 4650 nM (inactive)
GI50 (SK-MEL-5): 2360 nM (inactive)
GI50 (SK-OV-3): 14400 nM (inactive)
GI50 (SN12C): 1100 nM (active)
GI50 (SNB-19): 10800 nM (inactive)
GI50 (SNB-75): 2480 nM (inactive)
GI50 (SR): 1350 nM (inactive)
GI50 (SW-620): 265 nM (active)
GI50 (T47D): 570 nM (active)
GI50 (TK-10): 1230 nM (inactive)
GI50 (U-251): 2560 nM (inactive)
GI50 (UACC-257): 2440 nM (inactive)
GI50 (UACC-62): 1640 nM (inactive)
GI50 (UO-31): 1630 nM (inactive)
